The nature of series [1]: Confirmation of API solubility according to solvent pH (24 hours, HPLC). It counts as physicochemical.
The nature of series [2]: API stability in solution (solvent of Example 23, HPLC). The series is classed as physicochemical. The note with it: 10 mg/ml API. As for the experimental part: Therefore, in order to measure the content of the active form in the solution after preparing the injection, 10 mg/ml of API was dissolved using the solvent of Example 23, and the concentration and purity of the active API (Compound of Formula 2), which changed over time, were measured using HPLC until 60 minutes after dissolution.

Series [3] can be described thus: Change in content of active compound of Formula 2 over time according to solvent pH (FIG. 1). The series is classed as physicochemical. The protocol: In addition, after dissolving the API in solvents, the change in the content of the active compound of Formula 2 was measured over time.
A further series concerns caspase. Description: Caspase inhibitory activity. It counts as biochemical.

Each structure is given as a SMILES string.

For `CC(C)[C@@]1(C(=O)NC2CC(=O)OC2(O)CF)CC(c2nccc3ccccc23)=NO1` (stereo in doubt) [compound of Formula 1, (R)-N-((2S,3S)-2-(fluoromethyl)-2-hydroxy-5-oxotetrahydrofuran-3-yl)-5-isopropyl-3-(isoquinolin-1-yl)-4,5-dihydroisoxazol-5-carboxamide], the solubility result in series [1] (acidic solvents with a pH of 4 or less) is on record as “hardly soluble”; in series [1] (basic solvents with a pH of 7.5 or more) it was “well soluble”; in series [1] (weakly acidic solvents with a pH of 6 or more), “began to dissolve”. For the same compound, the entries for the “Peak Area Active” value in series [2] (30 min after mixing) and in series [2] (60 min after mixing) were “about 95.5%” and 94.18%, respectively. The “Peak Area Inactive” value in series [2] (30 min after mixing) was 4.33%; in series [2] (60 min after mixing) it was 5.59%.
In the case of `CC(C)[C@@]1(C(=O)N[C@H](CC(=O)O)C(=O)CF)CC(c2nccc3ccccc23)=NO1` [compound of Formula 3], the “conversion of compound of Formula 2 into compound of Formula 3” value is recorded as “hardly produced” in series [3] (acidic solvent) and “rapidly produced” in series [3] (basic solvent with a neutral pH or higher). In addition, in the series with caspase, the caspase inhibitory activity result is “does not show caspase inhibitory activity”.
For `CC(C)[C@@]1(C(=O)N[C@@H](CC(=O)O)C(=O)CF)CC(c2nccc3ccccc23)=NO1` [compound of Formula 2], the caspase inhibitory activity entry in the series on caspase is on record as “active form”.

For the origin of these results see US20250107999A1, “INJECTABLE FORMULATION CONTAINING ISOXAZOLINE DERIVATIVE” (LG CHEM, LTD., priority 2022, published 2025).
